Experimental findings from patent publication US20250130239A1, “PROTEIN DEGRADER” (University of Dundee, priority 2021, published 2025) are described below.

Bounds are passed on as bounds.

A word on the Kd: it is the constant that tells how readily two partners part at equilibrium. By Dmax is commonly meant the largest share of the target that was removed. The low end stands for shallow degradation, the high end for deep degradation.

In assay [1] the target is T1, VHL, compound preincubated with Brd4^BD2 L387A (Homo sapiens, UniProt O60885+P40337, L387A).
T1 construct: N-terminally Hiss-tagged VHL (54-213); N-terminally His6-tagged Brd4-BD2^L387A (333-460) was expressed in E. coli; His6 (N, cleaved yes); made in house; host or cells: E. coli
The assay can be described thus: Fluorescence polarization competitive binding assay, ternary complex binding. To be noted: displacement of HIF-1a peptide probe, read-out: ternary binding affinity Kd. The protocol:
Protein Expression and Purification. […] The complex was further purified by anion exchange followed by gel filtration chromatography.
Fluorescence Polarization Binding Assay. […] All components were dissolved from stock solutions using 100 mM Bis-Tris propane, 100 mM NaCl, 1 mM DTT, pH 7.0, to yield a final assay volume of 15 μL. DMSO was added as appropriate to ensure a final concentration of 2% v/v. […] Percentage displacement values were obtained by normalization of controls were plotted against Log[Compound]. IC50 values were determined for each titration using nonlinear regression analysis with Prism (v. 9.1.0, GraphPad). […] Cooperativity values (a) for each PROTAC were calculated using the ratio: α=binary Kd (−bromodomain)/ternary Kd (+bromodomain).
A general note: Polarisation of emitted light reports the rotation of a fluorescent probe.

For assay [2], the target named is T2, PPM1H (Q9ULR3), BromoTag C-term (Homo sapiens, UniProt O60885+P40337, L387A).
T2 construct: comprising residues 368-440 of human Brd4; PPM1H (endogenous protein, fusion partner in the same polypeptide); expressed in transfected cells
The assay can be described thus: Degradation of BromoTag'ed PPM1H by AGB1. The class given is cell-based. The source says:
(§1) Degradation of a variety of target proteins. […] We performed CRISPR knock-in of the BromoTag, as described, into the endogenous loci of five additional proteins. […] The target proteins of Table 6 are all different, are all known to have different cellular roles and function, intracellular expression, and distinctive turnover rates within cells.

The subject of assay [3] is BromoTag-protein conjugates. The assay can be described thus: Degradation of a variety of BromoTag'ed target proteins (summary). The class given is cell-based. The conditions noted are these: treatment window of 100 nM-1 nM.
From the text: as §1

For assay [4], the system named is BRD3, BRD4 or any other endogenous protein. The assay is described as follows: TMT labeling mass spectrometry proteomics, off-targets. To be noted: 1 μM, 2 h; >6,621 proteins quantified. The assay is classed as cell-based, human. The protocol: Sample processing, TMT labelling and fractionation. CRISPR modified BromoTag-Brd2 HEK293 cells were seeded 5×10^6 cells on a […] 24 h before treatment. Cells were treated with either DMSO, 1 μM AGB1 or 1 μM cis-AGB1. 2 h post-treatment, the cells were washed twice with PBS. Cells were lysed in 150 μL of 100 mM TEAB, 5% (w/v) SDS. The lysate was sonicated for 10 s and then centrifuged at 15,000 g for 5 min with the supernatant collected post-centrifugation. Samples were then quantified using a micro-BCA protein assay kit (Thermo Fisher Scientific); 300 μg of each sample were then reduced, alkylated and then digested using Strap mini protocol (Protifi) protocol as described by the manufacturer (protifi) with some modification. Samples were double digested with trypsin (1:40) first overnight then for another 6 hrs with the same ratio (1:40) in 50 mM TEAB buffer. Peptides were quantified using a quantitative fluorometric peptide assay (Thermo Fisher Scientific). The samples (90 μg each) were labelled with a TMT 10-plex Isobaric Label Reagent set (Thermo Fisher Scientific) as per the manufacturer's instructions. After labelling, samples were checked for labelling efficiency, then mixed, desalted, and dried in a speed-vac at 30° C. Samples were re-dissolved in 200 μl ammonium formate (10 mM, pH 9.5) and peptides were fractionated using High pH RP Chromatography. […]

In the case of `CC[C@@H](C(=O)OCCOCCOCCOCC(=O)N[C@H](C(=O)N1C[C@H](O)C[C@H]1C(=O)NCc1ccc(-c2scnc2C)cc1)C(C)(C)C)[C@@H]1N=C(c2ccc(Cl)cc2)c2c(sc(C)c2C)-n2c(C)nnc21` (single isomer, unassigned) [AGB1 (46)], the Kd in assay [1] was 11 nM. Besides, the Dmax in assay [2] is greater than 95%. The molecule also registered a pDC50 in assay [2] (BromoTag'ed PPM1H, C-term tag) greater than 7.0. In assay [3], the “loss of total target protein” value is “greater than 95%”. In addition, the “depletion of BRD3, BRD4 or any other endogenous protein (proteomics)” value in assay [4] is on record as “no detectable off-target effects”.
